This passage reports IC50 and aPTT2x results from US20220281868A1, “MACROCYCLIC DERIVATIVES AS FACTOR XIA INHIBITORS” (MEDSHINE DISCOVERY INC., priority 2019, published 2022).

In one assay the target is T1, human factor XIa (Homo sapiens, UniProt P03951).
T1 construct: Enzyme, Human Factor XIa (Human Factor XIa, Abcam, Cat #ab62411); purchased Abcam ab62411
Kind of assay: Screening test of enzyme inhibitory activity on hFXIa. The following applies: substrate S-2366/S-2306, 37° C. 10 minutes, absorbance 405 nm, pH 7.4. The class given is biochemical. As for the experimental part:
1. Screening Test of Enzyme Inhibitory Activity on hFXIa (Human Factor XIa)
(§1) Purpose of the Experiment:
Detection of the inhibitory activity of the compounds of the present disclosure on human factor XIa
1) Experimental buffer pH 7.4
100 mM Tris-HCl (Sigma, catalog number: T2663, batch number: SLBG2775)
200 mM NaCl (Sigma, catalog number: 13423, batch number: SZBB2360V)
2) Enzymes and Substrates
Enzyme, Human Factor XIa (Human Factor XIa, Abcam, Cat #ab62411): Total amount: 50 μg. Dissolved with experimental buffer and packed separately.
Substrate S-2366 (DiaPharma, catalog number: S821090): 25 mg
3) Instruments and Consumables
SpectraMax 340PC Multifunctional Microplate Reader (Molecular Devices)
384-well black transparent reaction plate (Corning Cata #3712)
Echo Liquid Workstation (Labcyte)
Echo 384-well polypropylene compound plate (Labcyte-P-05525) was used.
Echo 384 Shallow Pore Polypropylene Compound plate (Labcyte-LP-0200, 2.5-12 μL) was used.
Multidrop automatic dispenser (Thermo Scientific)
Multidrop Consumables (Thermo Scientific-24073290) […]
7) The reaction plate was placed in SpectraMax 340PC and incubated at 37° C. for 10 minutes, and the absorbance was detected at 405 nm.
8) Data were analyzed using GraphPad Prism 5.0
% Inhibition rate=100%×[1−(sample reading-low signal average value)/(high signal average value-low signal average value)]
IC50 was analyzed using 4-factor linear regression: […]

A further assay relates to human plasma. Nature of the assay: Determination of aPTT (activated partial thromboplastin time) in human plasma in vitro. The following applies: coagulation time.
From the text: 2. Determination of aPTT (Activated Partial Thromboplastin Time) in Human Plasma In Vitro
as §1
Detection of the anticoagulant effect of the compounds of the present disclosure on human plasma in vitro
1) Coagulation quality control plasma: produced by TECO, Germany, batch number: 093B-J186A
2) aPTT test solution: produced by TECO, Germany, batch number: 20002745; CaCl2): produced by TECO, Germany, batch number: 031N-J073A; DMSO: Sangon Bioengineering (Shanghai) Co., Ltd., batch number: BB02BA0001
3) Instrument: Germany Meichuang MC-4000 blood coagulation instrument
1) Sample solution preparation: 10 mM compound stock solution was prepared with DMSO, and then serially diluted with DMSO as follows: […], 2500, 625, 156.25, 39.06, 9.76, 2.44 μM; then series of concentrations were diluted with tris(hydroxymethylaminomethane) buffer (containing 5% Tween 80) 10 times for use, and the drug to plasma volume ratio was 1:9 during detection. […]
4) Test detection: According to the instructions of the kit, the sample solution to be tested or the reference solution were added into the 37° C. preheated colorimetric cup, preheated at 37° C. for 2 min, aPTT reagent was added, incubated at 37° C. for 3 min, 0.02 M CaCl2 (preheated at 37° C.) was added, and the coagulation time was recorded.

T1 sequence (P03951 388-625 limits assumed): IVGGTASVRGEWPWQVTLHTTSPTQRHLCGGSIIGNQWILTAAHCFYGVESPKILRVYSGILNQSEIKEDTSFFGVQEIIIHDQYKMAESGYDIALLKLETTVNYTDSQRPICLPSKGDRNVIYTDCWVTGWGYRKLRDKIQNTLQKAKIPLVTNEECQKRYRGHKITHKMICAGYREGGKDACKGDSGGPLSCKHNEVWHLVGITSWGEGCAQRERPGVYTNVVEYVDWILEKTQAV
T1 sequence (P03951 19-387 partner limits assumed): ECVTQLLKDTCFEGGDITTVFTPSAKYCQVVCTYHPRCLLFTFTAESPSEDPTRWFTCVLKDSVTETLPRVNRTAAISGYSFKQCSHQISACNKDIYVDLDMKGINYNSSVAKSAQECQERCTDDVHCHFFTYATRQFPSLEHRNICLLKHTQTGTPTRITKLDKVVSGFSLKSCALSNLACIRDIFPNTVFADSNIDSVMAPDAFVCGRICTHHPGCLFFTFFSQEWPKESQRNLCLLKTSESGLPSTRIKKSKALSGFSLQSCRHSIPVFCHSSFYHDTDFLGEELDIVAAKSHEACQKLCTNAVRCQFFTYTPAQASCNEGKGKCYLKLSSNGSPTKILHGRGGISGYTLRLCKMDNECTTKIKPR

What is called IC50 is the midpoint of a concentration-inhibition curve. Higher therefore signals a need for much substance. In turn, `C[C@@H]1CCCC(c2coc(-c3cc(Cl)ccc3-n3cc(C#N)nn3)cc2=O)c2cc(ccn2)-c2c(cnn2C(F)F)NC1=O` (stereo partly shown) [Compound 4] registered an IC50 at human factor XIa of 2.28 nM.
On human factor XIa, `[2H]C([2H])([2H])n1ncc2c1-c1ccnc(c1)C(c1coc(-c3c(-n4cc(Cl)nn4)ccc(Cl)c3F)cc1=O)CCCC(C)C(=O)N2` (stereo not shown) [Compound 8-1] yielded an IC50 of 3.5 nM. In the assay with human plasma, this compound came in with an aPTT2x of 4.94 µM.
For the compound Enoxaparin [reference compound], the aPTT2x with human plasma came to 4.61 µM.
